From PMC12446476 (Nature Communications, 2025)
Converted amounts (≈) assume the structure as drawn. Where two headings read alike, the source gives them in different places.

Test system: N. gonorrhoeae
Test: MIC determination, agar dilution (CLSI)
Format: cell-based, Neisseria gonorrhoeae
Details: for MIC: Neisseria gonorrhoeae
Method in brief: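 For N. gonorrhoeae, WHO 2024 reference strains served as quality control, only whole doubling-dilution MICs were reported, and isolates were classified by EUCAST v14.0 breakpoints or ECOFF. Time-kill assays followed CLSI in Columbia broth with 1% IsoVitaleX, and viable counts came from plating serial dilutions on GC agar with IsoVitaleX.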

Cc1c(CN(C)C(=O)/C=C/c2cnc3c(c2)N[C@H](C)[C@H](O)C(=O)N3)oc2ccccc12 [Debio 1453]
MIC range (100 contemporary clinical N. gonorrhoeae isolates): 0.008 to 0.125 µg/mL
MIC range (2024 WHO N. gonorrhoeae reference strains): 0.03 to 0.125 µg/mL
increase in MIC (6804 clones with FabI L257F vs parent): 4 fold
MIC (AR Bank0179-15 (AZM-R), mode of multiple measures, read-out: MIC): 0.03 µg/mL (≈ 0.0713 µM)
MIC (AR Bank0181-17 (AZM-R), mode of multiple measures, read-out: MIC): 0.125 µg/mL (≈ 0.297 µM)
MIC (ATCC700825, read-out: MIC relevant for mutant selection assay, ATCC 700825): 0.016 µg/mL (≈ 0.0381 µM)
MIC (WHO F, agar dilution, read-out: MIC): 0.03 µg/mL (≈ 0.0713 µM)
MIC (WHO H, agar dilution, read-out: MIC): 0.06 µg/mL (≈ 0.143 µM)
MIC (WHO K, agar dilution, read-out: MIC): 0.06 µg/mL (≈ 0.143 µM)
MIC (WHO L, agar dilution, read-out: MIC): 0.03 µg/mL (≈ 0.0713 µM)
MIC (WHO M, agar dilution, read-out: MIC): 0.06 µg/mL (≈ 0.143 µM)
MIC (WHO O, agar dilution, read-out: MIC): 0.06 µg/mL (≈ 0.143 µM)
MIC (WHO P, agar dilution, read-out: MIC): 0.125 µg/mL (≈ 0.297 µM)
MIC (WHO Q, agar dilution, read-out: MIC): 0.06 µg/mL (≈ 0.143 µM)
MIC (WHO R, agar dilution, read-out: MIC): 0.06 µg/mL (≈ 0.143 µM)
MIC (WHO S2, agar dilution, read-out: MIC): 0.06 µg/mL (≈ 0.143 µM)
MIC (WHO U, agar dilution, read-out: MIC): 0.125 µg/mL (≈ 0.297 µM)
MIC (WHO V, agar dilution, read-out: MIC): 0.06 µg/mL (≈ 0.143 µM)
MIC (WHO X-07 (CIP-R, CRO-R), mode of multiple measures, read-out: MIC): 0.125 µg/mL (≈ 0.297 µM)
MIC (WHO X, agar dilution, read-out: MIC): 0.06 µg/mL (≈ 0.143 µM)
MIC (WHO Y, agar dilution, read-out: MIC): 0.06 µg/mL (≈ 0.143 µM)
MIC (WHO Z, agar dilution, read-out: MIC): 0.06 µg/mL (≈ 0.143 µM)
MIC (clinical N. gonorrhoeae isolate 1, Sweden 2023, read-out: Minimum inhibitory concentration): 0.064 µg/mL (≈ 0.152 µM)
MIC (clinical N. gonorrhoeae isolate 2, Sweden 2023, read-out: Minimum inhibitory concentration): 0.032 µg/mL (≈ 0.0761 µM)
MIC (clinical N. gonorrhoeae isolate 3, Sweden 2023, read-out: Minimum inhibitory concentration): 0.064 µg/mL (≈ 0.152 µM)
MIC (clinical N. gonorrhoeae isolate 4, Sweden 2023, read-out: Minimum inhibitory concentration): 0.032 µg/mL (≈ 0.0761 µM)
MIC (clinical N. gonorrhoeae isolate 5, Sweden 2023, read-out: Minimum inhibitory concentration): 0.064 µg/mL (≈ 0.152 µM)
MIC (clinical N. gonorrhoeae isolate 6, Sweden 2023, read-out: Minimum inhibitory concentration): 0.032 µg/mL (≈ 0.0761 µM)
MIC (clinical N. gonorrhoeae isolate 7, Sweden 2023, read-out: Minimum inhibitory concentration): 0.064 µg/mL (≈ 0.152 µM)
MIC (clinical N. gonorrhoeae isolate 8, Sweden 2023, read-out: Minimum inhibitory concentration): 0.064 µg/mL (≈ 0.152 µM)
MIC (clinical N. gonorrhoeae isolate 9, Sweden 2023, read-out: Minimum inhibitory concentration): 0.064 µg/mL (≈ 0.152 µM)
MIC (clinical N. gonorrhoeae isolate 10, Sweden 2023, read-out: Minimum inhibitory concentration): 0.064 µg/mL (≈ 0.152 µM)
MIC (clinical N. gonorrhoeae isolate 11, Sweden 2023, read-out: Minimum inhibitory concentration): 0.064 µg/mL (≈ 0.152 µM)
MIC (clinical N. gonorrhoeae isolate 12, Sweden 2023, read-out: Minimum inhibitory concentration): 0.032 µg/mL (≈ 0.0761 µM)
MIC (clinical N. gonorrhoeae isolate 13, Sweden 2023, read-out: Minimum inhibitory concentration): 0.064 µg/mL (≈ 0.152 µM)
MIC (clinical N. gonorrhoeae isolate 14, Sweden 2023, read-out: Minimum inhibitory concentration): 0.032 µg/mL (≈ 0.0761 µM)
MIC (clinical N. gonorrhoeae isolate 15, Sweden 2023, read-out: Minimum inhibitory concentration): 0.064 µg/mL (≈ 0.152 µM)
MIC (clinical N. gonorrhoeae isolate 16, Sweden 2023, read-out: Minimum inhibitory concentration): 0.064 µg/mL (≈ 0.152 µM)
MIC (clinical N. gonorrhoeae isolate 17, Sweden 2023, read-out: Minimum inhibitory concentration): 0.064 µg/mL (≈ 0.152 µM)
MIC (clinical N. gonorrhoeae isolate 18, Sweden 2023, read-out: Minimum inhibitory concentration): 0.064 µg/mL (≈ 0.152 µM)
MIC (clinical N. gonorrhoeae isolate 19, Sweden 2023, read-out: Minimum inhibitory concentration): 0.064 µg/mL (≈ 0.152 µM)
MIC (clinical N. gonorrhoeae isolate 20, Sweden 2023, read-out: Minimum inhibitory concentration): 0.064 µg/mL (≈ 0.152 µM)
MIC (clinical N. gonorrhoeae isolate 21, Sweden 2023, read-out: Minimum inhibitory concentration): 0.064 µg/mL (≈ 0.152 µM)
MIC (clinical N. gonorrhoeae isolate 22, Sweden 2023, read-out: Minimum inhibitory concentration): 0.125 µg/mL (≈ 0.297 µM)
MIC (clinical N. gonorrhoeae isolate 23, Sweden 2023, read-out: Minimum inhibitory concentration): 0.064 µg/mL (≈ 0.152 µM)
MIC (clinical N. gonorrhoeae isolate 24, Sweden 2023, read-out: Minimum inhibitory concentration): 0.125 µg/mL (≈ 0.297 µM)
MIC (clinical N. gonorrhoeae isolate 25, Sweden 2023, read-out: Minimum inhibitory concentration): 0.064 µg/mL (≈ 0.152 µM)
MIC (clinical N. gonorrhoeae isolate 26, Sweden 2023, read-out: Minimum inhibitory concentration): 0.032 µg/mL (≈ 0.0761 µM)
MIC (clinical N. gonorrhoeae isolate 27, Sweden 2023, read-out: Minimum inhibitory concentration): 0.064 µg/mL (≈ 0.152 µM)
MIC (clinical N. gonorrhoeae isolate 28, Sweden 2023, read-out: Minimum inhibitory concentration): 0.064 µg/mL (≈ 0.152 µM)
MIC (clinical N. gonorrhoeae isolate 29, Sweden 2023, read-out: Minimum inhibitory concentration): 0.064 µg/mL (≈ 0.152 µM)
MIC (clinical N. gonorrhoeae isolate 30, Sweden 2023, read-out: Minimum inhibitory concentration): 0.125 µg/mL (≈ 0.297 µM)
MIC (clinical N. gonorrhoeae isolate 31, Sweden 2023, read-out: Minimum inhibitory concentration): 0.064 µg/mL (≈ 0.152 µM)
MIC (clinical N. gonorrhoeae isolate 32, Sweden 2023, read-out: Minimum inhibitory concentration): 0.016 µg/mL (≈ 0.0381 µM)
MIC (clinical N. gonorrhoeae isolate 33, Sweden 2023, read-out: Minimum inhibitory concentration): 0.064 µg/mL (≈ 0.152 µM)
MIC (clinical N. gonorrhoeae isolate 34, Sweden 2023, read-out: Minimum inhibitory concentration): 0.064 µg/mL (≈ 0.152 µM)
MIC (clinical N. gonorrhoeae isolate 35, Sweden 2023, read-out: Minimum inhibitory concentration): 0.032 µg/mL (≈ 0.0761 µM)
MIC (clinical N. gonorrhoeae isolate 36, Sweden 2023, read-out: Minimum inhibitory concentration): 0.016 µg/mL (≈ 0.0381 µM)
MIC (clinical N. gonorrhoeae isolate 37, Sweden 2023, read-out: Minimum inhibitory concentration): 0.064 µg/mL (≈ 0.152 µM)
MIC (clinical N. gonorrhoeae isolate 38, Sweden 2023, read-out: Minimum inhibitory concentration): 0.064 µg/mL (≈ 0.152 µM)
MIC (clinical N. gonorrhoeae isolate 39, Sweden 2023, read-out: Minimum inhibitory concentration): 0.008 µg/mL (≈ 0.019 µM)
MIC (clinical N. gonorrhoeae isolate 40, Sweden 2023, read-out: Minimum inhibitory concentration): 0.064 µg/mL (≈ 0.152 µM)
MIC (clinical N. gonorrhoeae isolate 41, Sweden 2023, read-out: Minimum inhibitory concentration): 0.125 µg/mL (≈ 0.297 µM)
MIC (clinical N. gonorrhoeae isolate 42, Sweden 2023, read-out: Minimum inhibitory concentration): 0.032 µg/mL (≈ 0.0761 µM)
MIC (clinical N. gonorrhoeae isolate 43, Sweden 2023, read-out: Minimum inhibitory concentration): 0.064 µg/mL (≈ 0.152 µM)
MIC (clinical N. gonorrhoeae isolate 44, Sweden 2023, read-out: Minimum inhibitory concentration): 0.032 µg/mL (≈ 0.0761 µM)
MIC (clinical N. gonorrhoeae isolate 45, Sweden 2023, read-out: Minimum inhibitory concentration): 0.032 µg/mL (≈ 0.0761 µM)
MIC (clinical N. gonorrhoeae isolate 46, Sweden 2023, read-out: Minimum inhibitory concentration): 0.032 µg/mL (≈ 0.0761 µM)
MIC (clinical N. gonorrhoeae isolate 47, Sweden 2023, read-out: Minimum inhibitory concentration): 0.064 µg/mL (≈ 0.152 µM)
MIC (clinical N. gonorrhoeae isolate 48, Sweden 2023, read-out: Minimum inhibitory concentration): 0.016 µg/mL (≈ 0.0381 µM)
MIC (clinical N. gonorrhoeae isolate 49, Sweden 2023, read-out: Minimum inhibitory concentration): 0.032 µg/mL (≈ 0.0761 µM)
MIC (clinical N. gonorrhoeae isolate 50, Sweden 2023, read-out: Minimum inhibitory concentration): 0.064 µg/mL (≈ 0.152 µM)
MIC (clinical N. gonorrhoeae isolate 51, Sweden 2023, read-out: Minimum inhibitory concentration): 0.016 µg/mL (≈ 0.0381 µM)
MIC (clinical N. gonorrhoeae isolate 52, Sweden 2023, read-out: Minimum inhibitory concentration): 0.125 µg/mL (≈ 0.297 µM)
MIC (clinical N. gonorrhoeae isolate 53, Sweden 2023, read-out: Minimum inhibitory concentration): 0.064 µg/mL (≈ 0.152 µM)
MIC (clinical N. gonorrhoeae isolate 54, Sweden 2023, read-out: Minimum inhibitory concentration): 0.064 µg/mL (≈ 0.152 µM)
MIC (clinical N. gonorrhoeae isolate 55, Sweden 2023, read-out: Minimum inhibitory concentration): 0.064 µg/mL (≈ 0.152 µM)
MIC (clinical N. gonorrhoeae isolate 56, Sweden 2023, read-out: Minimum inhibitory concentration): 0.008 µg/mL (≈ 0.019 µM)
MIC (clinical N. gonorrhoeae isolate 57, Sweden 2023, read-out: Minimum inhibitory concentration): 0.032 µg/mL (≈ 0.0761 µM)
MIC (clinical N. gonorrhoeae isolate 58, Sweden 2023, read-out: Minimum inhibitory concentration): 0.064 µg/mL (≈ 0.152 µM)
MIC (clinical N. gonorrhoeae isolate 59, Sweden 2023, read-out: Minimum inhibitory concentration): 0.064 µg/mL (≈ 0.152 µM)
MIC (clinical N. gonorrhoeae isolate 60, Sweden 2023, read-out: Minimum inhibitory concentration): 0.064 µg/mL (≈ 0.152 µM)
MIC (clinical N. gonorrhoeae isolate 61, Sweden 2023, read-out: Minimum inhibitory concentration): 0.064 µg/mL (≈ 0.152 µM)
MIC (clinical N. gonorrhoeae isolate 62, Sweden 2023, read-out: Minimum inhibitory concentration): 0.016 µg/mL (≈ 0.0381 µM)
MIC (clinical N. gonorrhoeae isolate 63, Sweden 2023, read-out: Minimum inhibitory concentration): 0.032 µg/mL (≈ 0.0761 µM)
MIC (clinical N. gonorrhoeae isolate 64, Sweden 2023, read-out: Minimum inhibitory concentration): 0.008 µg/mL (≈ 0.019 µM)
MIC (clinical N. gonorrhoeae isolate 65, Sweden 2023, read-out: Minimum inhibitory concentration): 0.064 µg/mL (≈ 0.152 µM)
MIC (clinical N. gonorrhoeae isolate 66, Sweden 2023, read-out: Minimum inhibitory concentration): 0.032 µg/mL (≈ 0.0761 µM)
